Experimental data: patent publication US20260262641A1 (priority 2023, published 2026)

How the values were obtained:
[1] = tested on: couch mite (Aceria cynodoniensis); assay: Field trial in Santa Ana couch turfgrass, control of couch mite (Example 3); type: in vivo
Experimental: A field trial was conducted in Santa Ana couch turfgrass, to evaluate fenpyroximate for control of couch mite (Aceria cynodoniensis). The trial was located at Terrey Hills Golf and Country Club, New South Wales (−33.668, 151.217). […] All treatments were applied using a hand boom fitted with XR11004 nozzles and in a spray volume of 430 L/ha.
The incidence of couch mite damage, to the terminal growth point (known as witches' broom) was assessed 42 days after the second application. Turf biomass and vigor were assessed at the same timing on a 0 to 10 rating scale, along with NDVI using a Greenseeker.
(§1) All data was statistically analyzed using analysis of variance and Fisher's protected least significant different test (Fishers LSD). The level of significance for all tests was P<0.05.

[2] = tested on: ground pearl (Margarodes spp); assay: Field trial in kikuyu turf, control of ground pearl, Robina (Example 6); type: in vivo; settings: 56 DAA3 (head); 0=dead; 10=best quality/color; product rate mL/ha: Meridian 1200, Kohinor 350 SC 1500, Fenpyroximate 50 SC 4000; each with Stamina B 20000
[3] = tested on: ground pearl (Margarodes spp); assay: as above; type: in vivo
Experimental: A field trial was conducted in kikuyu turf, to evaluate fenpyroximate for control of ground pearl (Margarodes spp). The trial was located at Robina, Queensland (−28.069442, 153.401817), in an area with a known infestation of ground pearl.
All treatments were applied using a hand boom fitted with XC08 nozzles, in a spray volume of 443 L/ha.
The ground pearl density by species was assessed prior to the first application and again 21 days after the third application by sampling 20 cores per plot and recording the number of eggs and adults. Turf vigor was assessed on a 0 to 10 rating scale (0=dead; 10=best quality/color) prior to the first application and 42 days after the third application.
as §1

[4] = tested on: redlegged earth mite (H. destructor; RLEM); assay: Field trial in canola, pre- or post-emergent control of RLEM (Example 5); type: in vivo, Halotydeus destructor
Experimental: A field trial was conducted in canola cv. Garrison, to evaluate fenpyroximate for control of redlegged earth mite (H. destructor; RLEM) as a pre- or post-emergent application. The trial was located at Beverley, Western Australia (−32.2248085, 117.0268493). The canola was sown on 13th June 2023. […] All treatments were applied using a hand boom fitted with flat fan nozzles in a spray volume of 100 L/ha.
The density of RLEM was assessed 33 days after the second application timing by counting the number of mites per plant.
as §1

[5] = tested on: insecticide-susceptible population of redlegged earth mite (H. destructor; RLEM); assay: whole plant or invertebrate; settings: Halotydeus destructor, 24 h, read-out: % RLEM mortality, Susceptible
Experimental: (§2) The insecticide-susceptible H. destructor population tested in this bioassay was collected from burr medic (Medicago polymorpha) and barley grass (Hordeum leporinum) in Moulamein, NSW (−35.102, 144.026), a site with no known history of insecticide application. […] Mites were collected via suction using a Stihl SH55 blower vacuum, placed in plastic containers with paper towel and vegetation, and transported back to the laboratory, where they were stored at 4° C. until testing.
(§3) Serial dilutions were prepared for each insecticide (Table 9), with the addition of a non-ionic surfactant (Tween 20) at 0.01% to aid the spread of the insecticide and ensure even coating. […] Nine concentrations of bifenthrin were tested, ranging from 1×10^−5 to 10 times the field rate of 40 mL diluted in 100 L of water (100 mg a.i./L). Seven concentrations of omethoate were tested, ranging from 1×10^−5 to 10 times the field rate of 100 mL in 100 L of water (290 mg a.i./L).
(§4) Six vials were coated per concentration and were left to dry overnight. Control vials were treated in the same way, except water (with the addition of 0.01% Tween) was used. The next day, eight individual H. destructor were then placed into each vial along with 2-3 leaves of common vetch (Vicia sativa), which provided food and humidity. Vials were then sealed with a screw lid and placed in a controlled temperature cabinet at 18° C. After 24-hours exposure, mites were scored as alive (moving freely), incapacitated (inhibited movement), or dead (no movement over a 5 second period).
(§5) Dose-response curves were generated by plotting percentage mortality against log concentration. A series of logistic models were used to quantify the sensitivity of H. destructor to each chemical and to test whether any differences in sensitivity were present between the two populations. Logistic regression is well suited for the analysis of binary response data (e.g., dead/alive). Each model included chemical concentration and H. destructor population as fixed-effect predictors, which allowed testing for whether populations had average differences in mortality (i.e., model intercept) via F tests. It was then determined if populations had differences in mortality that were dependent on chemical concentration (i.e., differences in regression slopes) by comparing the inclusion of a population×concentration predictor (i.e., allowing slopes to vary between populations). […] The resulting LC50 values were used to quantify the level of insecticide resistance (resistance ratios) relative to the known insecticide-susceptible population. All analyses were conducted using R version 4.3.1 (R Development Core Team 2023).

[6] = tested on: insecticide-resistant population of redlegged earth mite (H. destructor; RLEM); assay: whole plant or invertebrate; settings: Halotydeus destructor, 24 h, read-out: % RLEM mortality, Resistant
Experimental: as §2, §3, §4, §5

[7] = 21 days after third application, product rate mL or g/ha: Meridian 1200, Kohinor 350 SC 1500, Fenpyroximate 50 SC 4000 (200 g ai/ha), each with Stamina B 20000
[8] = Pre-spray (baseline), 20 cores per plot

## Cc1nn(C)c(Oc2ccccc2)c1C=NOCc1ccc(C(=O)OC(C)(C)C)cc1 [Fenpyroximate]
[1]; 42 DAA2, 0 to 10 rating scale, product rate mL/ha: Prophesy 500, Thumper 2000 (+ BS 1000 0.25% v/v), Fenpyroximate 50 SC 4000
  Biomass and vigor (0-10), 42 DAA2: 4.8
[1]; 42 DAA2, Greenseeker, product rate mL/ha: Prophesy 500, Thumper 2000 (+ BS 1000 0.25% v/v), Fenpyroximate 50 SC 4000
  NDVI, 42 DAA2: 0.63
[1]; 42 days after second application, product rate mL/ha: Prophesy 500, Thumper 2000 (+ BS 1000 0.25% v/v), Fenpyroximate 50 SC 4000 (200 g ai/ha)
  % Incidence mite damage, 42 DAA2: 47.0%
[1]; Pre-spray (baseline), 0 to 10 rating scale
  Biomass and vigor (0-10), Pre-spray: 4.1 a
[1]; Pre-spray (baseline), Greenseeker
  NDVI, Pre-spray: 0.55 a
[1]; Pre-spray (baseline), witches' broom
  % Incidence mite damage, Pre-spray: 95.8 a %
[1]; versus untreated, P<0.05
  incidence of couch mite damage (in words): significantly reduced
  turf biomass and vigor and NDVI (in words): significantly improved
[2]
  Turf vigor (0-10), 56 DAA3: 6.2 a
[3]; [7]
  Ground pearls/plot, Adults, 21 DAA3: 1.0 ab ground pearls/plot
  Ground pearls/plot, Eggs, 21 DAA3: 1.0 abc ground pearls/plot
[3]; Pre-spray (baseline), 0=dead, 10=best quality/color
  Turf vigor (0-10), Pre-spray: 5.1
[3]; [8]
  Ground pearls/plot, Adults, Pre-spray: 6.7 ground pearls/plot
  Ground pearls/plot, Eggs, Pre-spray: 4.0 ground pearls/plot
[3]; versus untreated, P<0.05
  density of ground pearl eggs and adults (in words): significantly reduced
  turf vigor (in words): significantly improved
[4]; application timing A (post-sow pre-emergent), product rate 1000 mL/ha
  % Control (33 DAA2): 67%
[4]; application timing A (post-sow pre-emergent), product rate 2000 mL/ha
  % Control (33 DAA2): 61%
[4]; application timing B (early post-emergent, 1 to 2 leaf canola), product rate 1000 mL/ha
  % Control (33 DAA2): 63%
[4]; application timing B (early post-emergent, 1 to 2 leaf canola), product rate 2000 mL/ha
  % Control (33 DAA2): 68%
[5]
  mortality at 0.1 µg/mL: 6.9%
  mortality at 1 µg/mL: 12.6%
  mortality at 10 µg/mL: 11.3%
  mortality at 100 µg/mL: 47.3%
  mortality at 300 µg/mL: 92.2%
  mortality at 1000 µg/mL: 98.5%
  mortality at 10000 µg/mL: 100%
[6]
  mortality at 0.1 µg/mL: 4.6%
  mortality at 10 µg/mL: 11.2%
  mortality at 100 µg/mL: 45.7%
  mortality at 300 µg/mL: 86.3%
  mortality at 1000 µg/mL: 100%
  mortality at 10000 µg/mL: 100%
